Tested on: Phakopsora pachyrhizi
Assay: Test A: Asian soybean rust control on soybean seedlings
Assay type: in vivo
Conditions: 250 ppm, sprayed to run-off on soybean seedlings, inoculated the following day; 100 = 100% disease control, 0 = no control
Source text: General protocol for preparing test suspensions for Tests A-C: the test compounds were first dissolved in acetone in an amount equal to 3% of the final volume and then suspended at the desired concentration (in ppm) in acetone and purified water (50/50 mix by volume) containing 250 ppm of the surfactant PEG400 (polyhydric alcohol esters). The resulting test suspensions were then used in Tests A-C.
The test solution was sprayed to the point of run-off on soybean seedlings. The following day the seedlings were inoculated with a spore suspension of Phakopsora pachyrhizi (the causal agent of Asian soybean rust) and incubated in a saturated atmosphere at 22° C. for 24 h, and then moved to a growth chamber at 22° C. for 8 days, after which time visual disease ratings were made.
Results for Tests A-C are given in Table A. In the Table, a rating of 100 indicates 100% disease control and a rating of 0 indicates no disease control (relative to the controls). A dash (-) indicates the compound was not tested.

**Q.** With `CCNC(=O)OC(c1ccc(F)cc1)c1ccc(-c2noc(C(F)(F)F)n2)cc1` (stereo not drawn) [Compound 114] as the compound, how does the “Test A disease control rating” value read?
**A.** 100%

**Q.** `CN(C)C(=O)OCc1cccc(-c2noc(C(F)(F)F)n2)c1` [Compound 99] was tested. Which “Test A disease control rating” value did it give?
**A.** 0%

**Q.** How did the “Test A disease control rating” value turn out when `CNC(=O)OC(c1ccc(F)cc1)c1ccc(-c2noc(C(F)(F)F)n2)cc1` (stereo not drawn) [Compound 113] was run?
**A.** 100%

**Q.** Which “Test A disease control rating” value does the source give for `NC(=O)OCc1cccc(-c2noc(C(F)(F)F)n2)c1` [Compound 93] here?
**A.** 100%

**Q.** How did the “Test A disease control rating” value turn out when `C=C(C)CNC(=O)OCc1cccc(-c2noc(C(F)(F)F)n2)c1` [Compound 98] was run?
**A.** 100%

**Q.** `NC(=O)OCc1ccc(-c2noc(C(F)(F)F)n2)cc1F` [Compound 85] was tested. Which “Test A disease control rating” value did it give?
**A.** 100%

**Q.** How did the “Test A disease control rating” value turn out when `COCCNC(=O)OCc1ccc(-c2noc(C(F)(F)F)n2)cc1` [Compound 11] was run?
**A.** 100%

**Q.** With `O=C(OC(c1ccc(F)cc1)c1ccc(-c2noc(C(F)(F)F)n2)cc1)n1ccnc1` (stereo not drawn) [Compound 127] as the compound, how does the “Test A disease control rating” value read?
**A.** 100%

**Q.** How did the “Test A disease control rating” value turn out when `CCNC(=O)OC(c1ccc(-c2noc(C(F)(F)F)n2)cc1)c1cccc(Cl)c1` (stereo not drawn) [Compound 103] was run?
**A.** 100%

Same assay, conditions: 255 ppm, sprayed to run-off on soybean seedlings, inoculated the following day; 100 = 100% disease control, 0 = no control

**Q.** Which “Test A disease control rating” value does the source give for `O=C(OCc1ccc(-c2noc(C(F)(F)F)n2)cc1)n1ccnc1` [Compound 8, 2-[4-[5-(trifluoromethyl)-1,2,4-oxadiazol-3-yl]phenyl]methyl-1H-imidazole-1-carboxylate] here?
**A.** 100%

Same assay, conditions: 260 ppm, sprayed to run-off on soybean seedlings, inoculated the following day; 100 = 100% disease control, 0 = no control

**Q.** For `O=C(NCc1ccccc1)OCc1ccc(-c2noc(C(F)(F)F)n2)cc1` [Compound 13], which “Test A disease control rating” value is on record?
**A.** 100%

**Q.** With `O=C(NCCCl)OCc1ccc(-c2noc(C(F)(F)F)n2)cc1` [Compound 7] as the compound, how does the “Test A disease control rating” value read?
**A.** 100%

**Q.** Which “Test A disease control rating” value does the source give for `CN(C)C(=O)OCc1ccc(-c2noc(C(F)(F)F)n2)cc1` [Compound 6] here?
**A.** 100%

**Q.** For `CCOC(=O)CNC(=O)OCc1ccc(-c2noc(C(F)(F)F)n2)cc1` [Compound 4], which “Test A disease control rating” value is on record?
**A.** 100%

**Q.** Which “Test A disease control rating” value does the source give for `CCNC(=O)OCc1ccc(-c2noc(C(F)(F)F)n2)cc1` [Compound 2] here?
**A.** 100%

Same assay, conditions: Phakopsora pachyrhizi, 216 h; 50 ppm, sprayed to run-off on soybean seedlings, inoculated the following day; 100 = 100% disease control, 0 = no control; read-out: Test A disease control rating

**Q.** With `CCNC(=O)OCCCn1cc(-c2noc(C(F)(F)F)n2)cn1` [Compound 18] as the compound, how does the pest or weed control at 50 ppm read?
**A.** 38%

Same assay, conditions: Phakopsora pachyrhizi, 216 h; 250 ppm, sprayed to run-off on soybean seedlings, inoculated the following day; 100 = 100% disease control, 0 = no control; read-out: Test A disease control rating

**Q.** For `COC(=O)NN=Cc1ccc(-c2noc(C(F)(F)F)n2)cc1` [Compound 105, methyl 2-[[4-[5-(trifluoromethyl)-1,2,4-oxadiazol-3-yl]phenyl]methylene]-hydrazinecarboxylate], which pest or weed control at 250 ppm is on record?
**A.** 100%

Tested on: Zymoseptoria tritici
Assay: Test B: wheat leaf blotch control on wheat seedlings
Assay type: in vivo
Conditions: 250 ppm (incl. values marked * = tested at 250 ppm), sprayed to run-off on wheat seedlings, inoculated the following day; 100 = 100% disease control, 0 = no control
Source text: (§1) General protocol for preparing test suspensions for Tests A-C: the test compounds were first dissolved in acetone in an amount equal to 3% of the final volume and then suspended at the desired concentration (in ppm) in acetone and purified water (50/50 mix by volume) containing 250 ppm of the surfactant PEG400 (polyhydric alcohol esters). The resulting test suspensions were then used in Tests A-C. The test solution was sprayed to the point of run-off on wheat seedlings. The following day the seedlings were inoculated with a spore suspension of Zymoseptoria tritici (the causal agent of wheat leaf blotch) and incubated in a saturated atmosphere at 24° C. for 48 h, and then moved to a growth chamber at 20° C. for 17 days, after which time disease ratings were made. Results for Tests A-C are given in Table A. In the Table, a rating of 100 indicates 100% disease control and a rating of 0 indicates no disease control (relative to the controls). A dash (-) indicates the compound was not tested.

**Q.** For `CCNC(=O)OCCCn1cc(-c2noc(C(F)(F)F)n2)cn1` [Compound 18], which “Test B disease control rating” value is on record?
**A.** 50* %

**Q.** How did the “Test B disease control rating” value turn out when `COC(=O)NN=Cc1ccc(-c2noc(C(F)(F)F)n2)cc1` [Compound 105, methyl 2-[[4-[5-(trifluoromethyl)-1,2,4-oxadiazol-3-yl]phenyl]methylene]-hydrazinecarboxylate] was run?
**A.** 99%

**Q.** With `CCNC(=O)OC(c1ccc(F)cc1)c1ccc(-c2noc(C(F)(F)F)n2)cc1` (stereo not drawn) [Compound 114] as the compound, how does the “Test B disease control rating” value read?
**A.** 9%

**Q.** How did the “Test B disease control rating” value turn out when `CN(C)C(=O)OCc1cccc(-c2noc(C(F)(F)F)n2)c1` [Compound 99] was run?
**A.** 0%

**Q.** `CNC(=O)OC(c1ccc(F)cc1)c1ccc(-c2noc(C(F)(F)F)n2)cc1` (stereo not drawn) [Compound 113] was tested. Which “Test B disease control rating” value did it give?
**A.** 82%

**Q.** With `NC(=O)OCc1cccc(-c2noc(C(F)(F)F)n2)c1` [Compound 93] as the compound, how does the “Test B disease control rating” value read?
**A.** 97%

**Q.** For `C=C(C)CNC(=O)OCc1cccc(-c2noc(C(F)(F)F)n2)c1` [Compound 98], which “Test B disease control rating” value is on record?
**A.** 3%

**Q.** How did the “Test B disease control rating” value turn out when `NC(=O)OCc1ccc(-c2noc(C(F)(F)F)n2)cc1F` [Compound 85] was run?
**A.** 98%

**Q.** For `COCCNC(=O)OCc1ccc(-c2noc(C(F)(F)F)n2)cc1` [Compound 11], which “Test B disease control rating” value is on record?
**A.** 96%

**Q.** For `O=C(OC(c1ccc(F)cc1)c1ccc(-c2noc(C(F)(F)F)n2)cc1)n1ccnc1` (stereo not drawn) [Compound 127], which “Test B disease control rating” value is on record?
**A.** 99%

**Q.** How did the “Test B disease control rating” value turn out when `CCNC(=O)OC(c1ccc(-c2noc(C(F)(F)F)n2)cc1)c1cccc(Cl)c1` (stereo not drawn) [Compound 103] was run?
**A.** 20%

Same assay, conditions: 255 ppm, sprayed to run-off on wheat seedlings, inoculated the following day; 100 = 100% disease control, 0 = no control

**Q.** `O=C(OCc1ccc(-c2noc(C(F)(F)F)n2)cc1)n1ccnc1` [Compound 8, 2-[4-[5-(trifluoromethyl)-1,2,4-oxadiazol-3-yl]phenyl]methyl-1H-imidazole-1-carboxylate] was tested. Which “Test B disease control rating” value did it give?
**A.** 13%

Same assay, conditions: 260 ppm, sprayed to run-off on wheat seedlings, inoculated the following day; 100 = 100% disease control, 0 = no control

**Q.** Which “Test B disease control rating” value does the source give for `O=C(NCc1ccccc1)OCc1ccc(-c2noc(C(F)(F)F)n2)cc1` [Compound 13] here?
**A.** 36%

**Q.** Which “Test B disease control rating” value does the source give for `O=C(NCCCl)OCc1ccc(-c2noc(C(F)(F)F)n2)cc1` [Compound 7] here?
**A.** 98%

**Q.** Which “Test B disease control rating” value does the source give for `CN(C)C(=O)OCc1ccc(-c2noc(C(F)(F)F)n2)cc1` [Compound 6] here?
**A.** 76%

**Q.** For `CCOC(=O)CNC(=O)OCc1ccc(-c2noc(C(F)(F)F)n2)cc1` [Compound 4], which “Test B disease control rating” value is on record?
**A.** 46%

**Q.** `CCNC(=O)OCc1ccc(-c2noc(C(F)(F)F)n2)cc1` [Compound 2] was tested. Which “Test B disease control rating” value did it give?
**A.** 99%

Tested on: Puccinia recondita f. sp. tritici
Assay: Test C: wheat leaf rust control on wheat seedlings
Assay type: in vivo
Conditions: 250 ppm, sprayed to run-off on wheat seedlings, inoculated the following day; 100 = 100% disease control, 0 = no control
Source text: as §1, with “Puccinia recondita f. sp.” for “Zymoseptoria”, “rust)” for “blotch)”, “20°” for “24°”, “24” for “48”, “6” for “17”

**Q.** How did the “Test C disease control rating” value turn out when `CCNC(=O)OC(c1ccc(F)cc1)c1ccc(-c2noc(C(F)(F)F)n2)cc1` (stereo not drawn) [Compound 114] was run?
**A.** 100%

**Q.** How did the “Test C disease control rating” value turn out when `CN(C)C(=O)OCc1cccc(-c2noc(C(F)(F)F)n2)c1` [Compound 99] was run?
**A.** 55%

**Q.** How did the “Test C disease control rating” value turn out when `CNC(=O)OC(c1ccc(F)cc1)c1ccc(-c2noc(C(F)(F)F)n2)cc1` (stereo not drawn) [Compound 113] was run?
**A.** 100%

**Q.** For `NC(=O)OCc1cccc(-c2noc(C(F)(F)F)n2)c1` [Compound 93], which “Test C disease control rating” value is on record?
**A.** 100%

**Q.** How did the “Test C disease control rating” value turn out when `C=C(C)CNC(=O)OCc1cccc(-c2noc(C(F)(F)F)n2)c1` [Compound 98] was run?
**A.** 100%

**Q.** How did the “Test C disease control rating” value turn out when `NC(=O)OCc1ccc(-c2noc(C(F)(F)F)n2)cc1F` [Compound 85] was run?
**A.** 100%

**Q.** For `COCCNC(=O)OCc1ccc(-c2noc(C(F)(F)F)n2)cc1` [Compound 11], which “Test C disease control rating” value is on record?
**A.** 100%

**Q.** With `O=C(OC(c1ccc(F)cc1)c1ccc(-c2noc(C(F)(F)F)n2)cc1)n1ccnc1` (stereo not drawn) [Compound 127] as the compound, how does the “Test C disease control rating” value read?
**A.** 100%

**Q.** `CCNC(=O)OC(c1ccc(-c2noc(C(F)(F)F)n2)cc1)c1cccc(Cl)c1` (stereo not drawn) [Compound 103] was tested. Which “Test C disease control rating” value did it give?
**A.** 86%

Same assay, conditions: 255 ppm, sprayed to run-off on wheat seedlings, inoculated the following day; 100 = 100% disease control, 0 = no control

**Q.** How did the “Test C disease control rating” value turn out when `O=C(OCc1ccc(-c2noc(C(F)(F)F)n2)cc1)n1ccnc1` [Compound 8, 2-[4-[5-(trifluoromethyl)-1,2,4-oxadiazol-3-yl]phenyl]methyl-1H-imidazole-1-carboxylate] was run?
**A.** 100%

Same assay, conditions: 260 ppm, sprayed to run-off on wheat seedlings, inoculated the following day; 100 = 100% disease control, 0 = no control

**Q.** For `O=C(NCc1ccccc1)OCc1ccc(-c2noc(C(F)(F)F)n2)cc1` [Compound 13], which “Test C disease control rating” value is on record?
**A.** 100%

**Q.** With `O=C(NCCCl)OCc1ccc(-c2noc(C(F)(F)F)n2)cc1` [Compound 7] as the compound, how does the “Test C disease control rating” value read?
**A.** 100%

**Q.** With `CN(C)C(=O)OCc1ccc(-c2noc(C(F)(F)F)n2)cc1` [Compound 6] as the compound, how does the “Test C disease control rating” value read?
**A.** 100%

**Q.** Which “Test C disease control rating” value does the source give for `CCOC(=O)CNC(=O)OCc1ccc(-c2noc(C(F)(F)F)n2)cc1` [Compound 4] here?
**A.** 100%

**Q.** For `CCNC(=O)OCc1ccc(-c2noc(C(F)(F)F)n2)cc1` [Compound 2], which “Test C disease control rating” value is on record?
**A.** 100%

Same assay, conditions: Puccinia recondita, 168 h; 50 ppm, sprayed to run-off on wheat seedlings, inoculated the following day; 100 = 100% disease control, 0 = no control; read-out: Test C disease control rating

**Q.** With `CCNC(=O)OCCCn1cc(-c2noc(C(F)(F)F)n2)cn1` [Compound 18] as the compound, how does the pest or weed control at 50 ppm read?
**A.** 0%

Same assay, conditions: Puccinia recondita, 168 h; 250 ppm, sprayed to run-off on wheat seedlings, inoculated the following day; 100 = 100% disease control, 0 = no control; read-out: Test C disease control rating

**Q.** `COC(=O)NN=Cc1ccc(-c2noc(C(F)(F)F)n2)cc1` [Compound 105, methyl 2-[[4-[5-(trifluoromethyl)-1,2,4-oxadiazol-3-yl]phenyl]methylene]-hydrazinecarboxylate] was tested. Which pest or weed control at 250 ppm did it give?
**A.** 100%
